Experimental data published in US6956040B2, “Oxazolidinone piperazinyl derivatives as potential antimicrobials” (Ranbaxy Laboratories Limited, priority 2001, dated 2005).
Where two headings read alike, the source gives them in different places.

Legend:
S. pneum AB 34 = experiment: MIC, agar incorporation method; assay type: cell-based, Streptococcus pneumoniae
In short: (§1)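 Colonies were suspended in saline to 0.5 McFarland, diluted, and 10^4 CFU applied per spot onto dried Mueller Hinton agar containing twofold compound dilutions. After 18 hours' incubation, the no-growth concentration gave the MIC.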

S. pneum 6303 = experiment: MIC, agar incorporation method; assay type: cell-based, Streptococcus pneumoniae
In short: (§2)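 Mueller Hinton agar with twofold compound dilutions (DMSO stocks); inoculum 0.5 McFarland, 10^4 CFU/spot; 18 h incubation, 24 h for MRSN work; MIC = no-growth concentration, μg/ml. Runs accepted only if standard antibiotics gave in-range MICs on ATCC reference strains.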

E. faecalis 29212 = experiment: MIC, agar incorporation method; assay type: cell-based, Enterococcus faecalis
In short: as §2

S. pyogenes 19615 = experiment: MIC, agar incorporation method; assay type: cell-based, Streptococcus pyogenes
In short: as §2

MRSA 562 [1] = experiment: In vivo activity against MRSA 562 (ED50); set-up: species or system Staphylococcus aureus
VRE 6A = experiment: MIC, agar incorporation method; assay type: cell-based, Enterococcus faecium
In short: as §2

MRSA 562 [2] = experiment: MIC, agar incorporation method; assay type: cell-based, Staphylococcus aureus
In short: as §1

MRSA 33 = experiment: MIC, agar incorporation method; assay type: cell-based, Staphylococcus aureus
In short: as §1

[3] = Changes in MIC under different conditions: Broth MIC; assay type: cell-based; conditions: strain not given
[4] = Changes in MIC under different conditions: Agar MIC; assay type: cell-based; conditions: strain not given
Description: (§3) The compounds of the invention display antibacterial activity when tested by the agar incorporation method. The following minimum inhibitory concentrations (μg/ml) were obtained for representative compounds of the invention which are given below in the following tables.
(§4) Briefly, the compounds were dissolved in DMSO and doubling dilution of the compounds were incorporated into Meuller Hilton agar before solidification. Inoculum was prepared by suspending 4 to 5 colonies into 5 ml of normal saline solution and adjusting the turbidity to 0.5 Macfarland turbidity standard tables (1.5×10^8 CFU/ml), after appropriate dilutions, 10^4 CFU/spot was transfered into the surface of dried plate and incubated for 18 hours (24 hours for MRSN studies). The concentration showing no growth of the inoculated culture was recorded as the MIC. Appropriate ATCC standard strains were simultaneously tested and result recorded only when the MIC's against standard antibiotics were within the acceptable range.

MRSA 15187 = experiment: MIC, agar incorporation method; assay type: cell-based, Staphylococcus aureus
In short: as §2

S. aureus 25923 = experiment: MIC, agar incorporation method; assay type: cell-based, Staphylococcus aureus
In short: as §2

S. pneumoniae = experiment: Summary of in vitro activity (MIC) against S. pneumoniae; assay type: cell-based, Streptococcus pneumoniae
Description: as §3, §4

G+ve = experiment: Summary of in vitro activity (MIC) against G+ve bacteria; assay type: cell-based
Description: as §3, §4

E. faecalis = experiment: Summary of in vitro activity (MIC) against E. faecalis; assay type: cell-based, Enterococcus faecalis
Description: as §3, §4

S. aureus = experiment: Summary of in vitro activity (MIC) against S. aureus; assay type: cell-based, Staphylococcus aureus
Description: as §3, §4

[5] = S. pneum AB 34, agar incorporation
[6] = S. pneum 6303, agar incorporation
[7] = E. faecalis 29212, agar incorporation
[8] = S. pyogenes 19615, agar incorporation
[9] = MRSA 562, agar incorporation, Table 1
[10] = S. aureus 25923, agar incorporation

CC(=O)NC[C@H]1CN(c2ccc(N3CCN(C(=O)c4ccoc4)CC3)c(F)c2)C(=O)O1 [Compound No. 08, (S)-N[[3-[3-Fluoro-4-[N-1[4-(3-furoyl)]piperazinyl]phenyl]2-oxo-5-oxazolidinyl]methyl]cetamide]
25 mg/kg body weight: ED50 (mg/kg body weight) PO (MRSA 562 [1])
2 µg/mL: MIC (S. pneum 6303; [6]) | Broth MIC Normal MH broth [3] | MIC (S. aureus 25923; [10])
1 µg/mL: MIC (E. faecalis 29212; [7]) | MIC (S. pyogenes 19615; [8]) | MIC (VRE 6A; VRE 6A, agar incorporation) | MIC (MRSA 562 [2]; MRSA 562, Table 5) | MIC (MRSA 562 [2]; [9]) | MIC (MRSA 33; MRSA 33, agar incorporation) | Agar MIC [4] | MIC (MRSA 15187; MRSA 15187, agar incorporation)
4 µg/mL: MIC (S. pneum AB 34; [5]) | Broth MIC +50% Sheep serum [3]

CC(=O)NC[C@H]1CN(c2ccc(N3CCN(C(=O)c4ccc([N+](=O)[O-])s4)CC3)c(F)c2)C(=O)O1.Cl [Compound No. 29, (S)-N[[3-[3-Fluoro-4-[N-1[4-(5-nitro-2-thienoyl)]piperazinyl]-phenyl]2-oxo-5-oxazolidinyl]methyl]acetamide hydrochloride]
<0.1 µg/mL: MIC (MRSA 562 [2]; MRSA 562, Table 5) | MIC (MRSA 562 [2]; [9]) | MIC (MRSA 33; MRSA 33, agar incorporation) | Agar MIC [4] | MIC (MRSA 15187; MRSA 15187, agar incorporation)
0.064 µg/mL: MIC50 (S. aureus; S. aureus, Number 8)
>25 mg/kg body weight: ED50 (mg/kg body weight) PO (MRSA 562 [1])
1 µg/mL: MIC (S. pneum AB 34; [5]) | MIC (S. pneum 6303; [6]) | MIC (E. faecalis 29212; [7]) | MIC (S. pyogenes 19615; [8]) | MIC50 (S. pneumoniae; S. pneumoniae, Number 19) | MIC90 (S. pneumoniae; S. pneumoniae, Number 19) | MIC50 (G+ve; G+ve, Number 49) | MIC90 (G+ve; G+ve, Number 49) | MIC50 (E. faecalis; E. faecalis, Number 7) | MIC90 (E. faecalis; E. faecalis, Number 7)
0.5 µg/mL: MIC (VRE 6A; VRE 6A, agar incorporation) | Broth MIC +50% Sheep serum [3]
0.25 µg/mL: Broth MIC Normal MH broth [3] | MIC90 (S. aureus; S. aureus, Number 8) | MIC (S. aureus 25923; [10])

CC(=O)NC[C@H]1CN(c2ccc(N3CCC(N(C)C(=O)c4ccc([N+](=O)[O-])o4)CC3)c(F)c2)C(=O)O1 [Compound No. 44]
<0.1 µg/mL: MIC (VRE 6A; VRE 6A, agar incorporation) | MIC (MRSA 562 [2]; MRSA 562, Table 5) | MIC (MRSA 562 [2]; [9]) | MIC (MRSA 33; MRSA 33, agar incorporation) | Broth MIC Normal MH broth [3] | Agar MIC [4] | MIC (MRSA 15187; MRSA 15187, agar incorporation)
0.31 µg/mL: Geometric Mean of in vitro activity (MIC) (G+ve; Gram +ve)
0.064 µg/mL: MIC50 (E. faecalis; E. faecalis, Number 7) | MIC50 (S. aureus; S. aureus, Number 8)
0.96 µg/mL: Geometric Mean of in vitro activity (MIC) (S. pneumoniae; S. pneumoniae)
0.25 µg/mL: MIC (E. faecalis 29212; [7]) | MIC90 (E. faecalis; E. faecalis, Number 7) | Broth MIC +50% Sheep serum [3] | MIC90 (S. aureus; S. aureus, Number 8) | MIC (S. aureus 25923; [10])
2 µg/mL: MIC (S. pneum AB 34; [5]) | MIC (S. pneum 6303; [6]) | MIC90 (S. pneumoniae; S. pneumoniae, Number 19) | MIC90 (G+ve; G+ve, Number 49)
1 µg/mL: MIC50 (S. pneumoniae; S. pneumoniae, Number 19)
>25 mg/kg body weight: ED50 (mg/kg body weight) PO (MRSA 562 [1])
0.11 µg/mL: Geometric Mean of in vitro activity (MIC) (E. faecalis; E. faecalis) | Geometric Mean of in vitro activity (MIC) (S. aureus; S. aureus)
0.5 µg/mL: MIC (S. pyogenes 19615; [8]) | MIC50 (G+ve; G+ve, Number 49)

CN[C@H](CC(C)C)C(=O)N[C@H]1C(=O)N[C@@H](CC(N)=O)C(=O)N[C@H]2C(=O)N[C@H]3C(=O)N[C@H](C(=O)N[C@H](C(=O)O)c4cc(O)cc(O)c4-c4cc3ccc4O)[C@H](O)c3ccc(c(Cl)c3)Oc3cc2cc(c3O[C@@H]2O[C@H](CO)[C@@H](O)[C@H](O)[C@H]2O[C@H]2C[C@](C)(N)[C@H](O)[C@H](C)O2)Oc2ccc(cc2Cl)[C@H]1O [Vancomycin, reference compound]
1 µg/mL: Broth MIC +50% Sheep serum [3] | Broth MIC Normal MH broth [3] | Agar MIC [4] | MIC50 (S. aureus; Staphylococcus aureus) | MIC90 (S. aureus; Staphylococcus aureus) | MIC (S. aureus; Staphylococcus aureus, read-out: Geometric Mean of in vitro activity (MIC)) | MIC (S. aureus 25923; Staphylococcus aureus, 25923)
0.25 µg/mL: MIC (S. pneum AB 34; Streptococcus pneumoniae, AB34)
4 µg/mL: MIC (E. faecalis 29212; Enterococcus faecalis, 29212)
0.5 µg/mL: MIC (S. pneum 6303; Streptococcus pneumoniae, 6303) | MIC (S. pyogenes 19615; Streptococcus pyogenes, 19615) | MIC50 (S. pneumoniae; Streptococcus pneumoniae) | MIC90 (S. pneumoniae; Streptococcus pneumoniae) | MIC50 (G+ve) | MIC (MRSA 562 [2]; MRSA 562, Table 5) | MIC (MRSA 562 [2]; Staphylococcus aureus, MRSA) | MIC (MRSA 33; Staphylococcus aureus, MRSA) | MIC (MRSA 15187; Staphylococcus aureus, MRSA)
9.75 µg/mL: MIC (E. faecalis; Enterococcus faecalis, read-out: Geometric Mean of in vitro activity (MIC))
0.93 µg/mL: MIC (G+ve; read-out: Geometric Mean of in vitro activity (MIC))
0.39 µg/mL: MIC (S. pneumoniae; Streptococcus pneumoniae, read-out: Geometric Mean of in vitro activity (MIC))
16 µg/mL: MIC90 (G+ve) | MIC50 (E. faecalis; Enterococcus faecalis) | MIC90 (E. faecalis; Enterococcus faecalis)
> 16 µg/mL: MIC (VRE 6A; Enterococcus, VRE)
